Laboratory results as given in PubChem BioAssay (NCI).
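Interpolation was linear, between the two tested concentrations surrounding the appropriate level; five concentrations were tested over 48 hours in 96-well plates. Here, GI50 denotes the concentration required for 50% inhibition of growth. TGI denotes the concentration required for complete inhibition of growth.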

Assays:
Assay in all cases: NCI anticancer screen, dose series, 48 h
[1] = system: HCT-116 colon
[2] = system: UACC-257 melanoma
[3] = system: HL-60(TB) leukemia
[4] = system: LOX IMVI melanoma
[5] = system: M14 melanoma
[6] = system: HOP-18 NSCLC
[7] = system: DMS 273 small cell lung
[8] = system: KM20L2 colon
[9] = system: IGROV1 ovarian
[10] = system: MDA-MB-231 breast
[11] = system: HS 578T breast

NC(=O)NNC/C(Cl)=C(\Cl)C(=O)O
TGI [1]: > 100 µM
TGI [2]: > 100 µM
TGI [3]: > 100 µM
TGI [4]: > 100 µM
TGI [5]: > 100 µM
TGI [6]: > 100 µM
TGI [7]: > 100 µM
TGI [8]: > 100 µM
TGI [9]: > 100 µM

CCC(=O)OCOc1ccc(/C=C2\CCC(CN(C)C)C2=O)cc1 (centres undefined)
TGI [1]: 18.2 µM
TGI [2]: 10.6 µM
TGI [10]: > 19.9 µM
TGI [3]: 5.51 µM
TGI [4]: 4.1 µM
TGI [5]: 9.23 µM
TGI [6]: 28.8 µM
TGI [7]: 15.2 µM
TGI [8]: 32.6 µM
TGI [11]: > 79 µM
TGI [9]: 16.3 µM

CCO/C=C\C12CCCC1NC(c1ccccc1)(c1ccccc1)O2 (centres undefined)
TGI [1]: > 100 µM
TGI [2]: 85.5 µM
TGI [3]: 45.2 µM
TGI [5]: 66 µM
TGI [7]: > 100 µM
TGI [8]: 57.9 µM
TGI [9]: 71.1 µM

OC1OCC(COc2cc(Cl)c(Cl)cc2Cl)OC1O (centres undefined)
TGI [1]: 42.1 µM
TGI [2]: > 100 µM
TGI [3]: 90.9 µM
TGI [5]: > 100 µM
TGI [6]: 90.8 µM
TGI [7]: > 100 µM
TGI [8]: > 100 µM
TGI [9]: > 100 µM

COc1cc(/C=C2\[C@@H]3NC(Cc4c(OC)c(C)c(OC)c(OC)c43)C(=O)N2Cc2ccccc2)c(OC)c(C)c1OC
TGI [1]: > 100 µM
TGI [2]: > 100 µM
TGI [3]: 62.8 µM
TGI [4]: > 100 µM
TGI [5]: > 100 µM
TGI [6]: > 100 µM
TGI [7]: > 100 µM
TGI [8]: 96.3 µM
TGI [9]: > 100 µM

CC1C(c2ccccc2)N(C)C(c2ccccc2)C(C)C1(O)c1ccccc1 (centres undefined)
TGI [1]: > 100 µM
TGI [2]: > 100 µM
TGI [3]: > 100 µM
TGI [4]: > 100 µM
TGI [5]: > 100 µM
TGI [7]: > 100 µM
TGI [8]: > 100 µM
TGI [9]: > 100 µM

COc1cc2c(cc1OC)C(Cl)C(c1ccc(Br)cc1)=C2Cl (centres undefined)
TGI [1]: 22.7 µM
TGI [2]: 31.6 µM
TGI [10]: 21.6 µM
TGI [3]: > 67.3 µM
TGI [4]: 24.4 µM
TGI [5]: 23.3 µM
TGI [6]: 56.4 µM
TGI [7]: 31.6 µM
TGI [8]: 41.3 µM
TGI [11]: 59.3 µM
TGI [9]: 31.8 µM

O=C(NC1CCC[C@H]1OC(=O)c1ccccc1)c1ccccc1 (some centres undefined)
TGI [1]: > 100 µM
TGI [2]: > 100 µM
TGI [3]: > 100 µM
TGI [5]: > 100 µM
TGI [7]: > 100 µM
TGI [9]: > 100 µM

CC1(c2ccc(F)cc2)C2C(=O)NC(=O)C1C(=O)NC2=O (centres undefined)
TGI [2]: > 100 µM
TGI [3]: > 100 µM
TGI [4]: > 100 µM
TGI [5]: > 100 µM
TGI [7]: > 100 µM
TGI [8]: > 100 µM
TGI [9]: > 100 µM

C=CCC1(CN(C)C)CC/C(=C\c2ccc3c(c2)OCO3)C1=O (centres undefined)
TGI [1]: > 100 µM
TGI [2]: > 100 µM
TGI [3]: 15.8 µM
TGI [4]: > 100 µM
TGI [5]: > 100 µM
TGI [6]: > 100 µM
TGI [7]: > 100 µM
TGI [8]: > 100 µM
TGI [9]: > 100 µM

CCC(O)CCCCCCCCCCCCCCC(=O)O (centres undefined)
TGI [1]: > 100 µM
TGI [2]: > 100 µM
TGI [3]: 80 µM
TGI [5]: > 100 µM
TGI [6]: > 100 µM
TGI [7]: > 100 µM
TGI [9]: > 100 µM

Cc1ccc(/C=C2\CCCCC2=O)cc1
TGI [1]: > 100 µM
TGI [3]: 48.3 µM
TGI [4]: > 100 µM
TGI [5]: > 100 µM
TGI [6]: > 100 µM
TGI [7]: > 100 µM
TGI [8]: > 100 µM
TGI [9]: > 100 µM

COc1ccc(N=NC2=C(O)CCC2=O)cc1
TGI [1]: > 100 µM
TGI [2]: > 100 µM
TGI [3]: > 100 µM
TGI [4]: > 100 µM
TGI [5]: > 100 µM
TGI [6]: > 100 µM
TGI [7]: > 100 µM
TGI [9]: > 100 µM

CC(C)N1CC2CC(CN(C(=O)c3ccc(Cl)cc3)C2)C1
TGI [2]: > 100 µM
TGI [3]: > 100 µM
TGI [4]: > 100 µM
TGI [5]: > 100 µM
TGI [6]: > 100 µM
TGI [7]: > 100 µM
TGI [8]: > 100 µM
TGI [9]: > 100 µM

CCCCCCCCCCCCCCNCC(OC)OC
TGI [1]: 26 µM
TGI [2]: 37.5 µM
TGI [3]: 23 µM
TGI [4]: 33.5 µM
TGI [5]: 27.4 µM
TGI [6]: 26.4 µM
TGI [7]: 33 µM
TGI [8]: 28.8 µM
TGI [9]: 32.3 µM

Cc1ccc2ccccc2c1CSc1nc(N)nc2c1ncn2CC(C)C
TGI [1]: > 100 µM
TGI [2]: > 87.3 µM
TGI [10]: > 100 µM
TGI [3]: > 100 µM
TGI [4]: > 100 µM
TGI [5]: > 80.8 µM
TGI [11]: > 100 µM
TGI [9]: > 100 µM

Cc1cc(N(CCC#N)S(=O)(=O)c2ccccc2)ccc1C=Nc1ccc(C(=O)O)cc1
TGI [1]: 14.7 µM
TGI [2]: 30 µM
TGI [10]: > 100 µM
TGI [3]: > 21.3 µM
TGI [4]: 25.5 µM
TGI [5]: 21.8 µM
TGI [6]: 16.6 µM
TGI [7]: 17.5 µM
TGI [8]: 28.6 µM
TGI [11]: > 100 µM
TGI [9]: 46.5 µM

CC(=O)OC1CC2(C)C(=CC1C1SCCS1)CCC1C2CCC2(C)C(OC(C)=O)CCC12 (centres undefined)
TGI [1]: > 100 µM
TGI [2]: > 100 µM
TGI [10]: > 100 µM
TGI [3]: > 100 µM
TGI [4]: > 100 µM
TGI [5]: > 100 µM
TGI [11]: 49.9 µM
TGI [9]: > 100 µM

OC(c1cc(C(F)(F)F)nc2c(Cl)cc(Cl)cc12)C1CCCCN1 (centres undefined)
TGI [1]: > 35.9 µM
TGI [2]: > 38.8 µM
TGI [10]: > 44.8 µM
TGI [3]: 17.7 µM
TGI [4]: 14.8 µM
TGI [5]: > 44 µM
TGI [11]: > 48.4 µM
TGI [9]: 18.2 µM

O=C1c2ccccc2C(=O)N1CC#CCO
TGI [1]: > 100 µM
TGI [2]: > 100 µM
TGI [3]: > 100 µM
TGI [5]: > 100 µM
TGI [7]: > 100 µM

Cc1cc(-c2ccccc2)nc(Nc2cc3ccccc3[nH]2)n1
TGI [1]: > 100 µM
TGI [2]: > 100 µM
TGI [3]: > 100 µM
TGI [4]: > 100 µM
TGI [5]: > 100 µM
TGI [8]: > 100 µM
TGI [9]: > 100 µM

Cn1nc(C(F)(F)F)cc1-c1cc(Cl)c(OCc2ccc(Cl)cc2)c(-c2ccc(Cl)c(C(F)(F)F)c2)c1O
GI50 [1]: 0.691 µM
TGI [1]: 1.86 µM
GI50 [2]: 0.964 µM
TGI [2]: 3.14 µM
GI50 [10]: 0.958 µM
TGI [10]: 2.43 µM
GI50 [3]: 1.12 µM
TGI [3]: 2.49 µM
GI50 [4]: 1.16 µM
TGI [4]: 3.12 µM
GI50 [5]: 1.16 µM
TGI [5]: 2.93 µM
GI50 [11]: 0.975 µM
TGI [11]: 2.92 µM
GI50 [9]: 1.56 µM
TGI [9]: 6.42 µM

Clc1cnc(Nc2ccc(OCCN3CCCC3)cc2)nc1NCc1ccco1
GI50 [1]: 2.56 µM
TGI [1]: 28.6 µM
GI50 [2]: 2.44 µM
TGI [2]: 6.32 µM
GI50 [10]: 2.48 µM
TGI [10]: 13.5 µM
GI50 [3]: 1.03 µM
TGI [3]: 5.01 µM
GI50 [4]: 1.16 µM
TGI [4]: 4.26 µM
GI50 [5]: 2.46 µM
TGI [5]: 9.55 µM
GI50 [11]: 1.39 µM
TGI [11]: 5.18 µM
GI50 [9]: 2.5 µM
TGI [9]: 12.8 µM
